Values of other authors in patent US8791127B2, “Mucosal bioadhesive slow release carrier for delivering active principles” (BioAlliance Pharma, priority 2006, dated 2014).
Values after ≈ are worked out from the molar mass of the structure shown.

Tested on: HSV-1 virus
Details: towards HSV-1 virus

Nc1nc2c(ncn2COCCO)c(=O)[nH]1 [acyclovir]
minimal inhibitory concentration (MIC): 0.0225 µg/mL (≈ 0.0999 µM)
